Assay results taken from paper PMC11310889, “Ribosomal translation of fluorinated non-canonical amino acids for de novo biologically active fluorinated macrocyclic peptides” (Chemical Science, 2024).

Assays:
E. coli W3110 [1] = assay: Propidium iodide (PI) assay of membrane permeability; type: cell-based, Escherichia coli; conditions: E. coli W3110 logarithmic-phase, 15 min treatment with 5 μM peptide, PI 25 μg/mL 15 min (Fig. 5A)
Experimental: Propidium Iodide (PI) assay
Thaw the previously preserved E. coli W3110 cells from the -80 °C freezer. Scrape a small amount and inoculate it into 1 mL of LB liquid medium. Culture overnight in a 37°C shaker. Next day, inoculate the strain into fresh LB liquid medium at a 1:100 ratio and incubate at 37 °C until the OD600 reaches approximately 0.47 to 0.53. Take 100 μL of the E. coli W3110 cells and centrifuge for 2 min at 13,000 rpm. Discard the supernatant. For the untreated group, resuspend the cells in 100 μL of PBS. For the peptide treatment group, resuspend the cells in 99 μL of ddH2O and add 1 […]
μL of 0.5 mM of the different peptides. Mix thoroughly and let react for 15 min. After the treatment, take 80 μL of each sample and incubate with PI at a final concentration of 25 μg/mL for 15 min.
After incubation, wash the samples with the same amount of PBS, centrifuge, and resuspend at a 10-fold concentration. Observe the images using a Nikon Eclipse Ci-L Plus microscope. […]
(§1) Incubate overnight in a 37°C shaker. […]
Centrifuge again at
6100g for 10 min, discard the supernatant, and add 500 μL of ddH2O containing 2.5% glutaraldehyde. Resuspend and fix the cells overnight at 4°C. Centrifuge at 6100g for 10 min, remove the supernatant, and wash twice with ddH2O, letting it stand for 15 min each time, followed by centrifugation at 6100g for 10 min. Discard the supernatant. Dehydrate the sample with ethanol at concentration gradients of 30%, 60%, and 90%, without resuspension, centrifuging at 6100g for […]

E. coli W3110 [2] = assay: Protein leakage assay; type: cell-based, Escherichia coli; conditions: E. coli W3110, 5 μM peptide, 15 min, pellet analysed by SDS-PAGE, compared to R9-treated sample (Fig. S10)
Experimental: Thaw the previously preserved E. coli W3110 cells from the -80 °C freezer. Scrape a small amount and inoculate it into 1 mL of LB liquid medium. Incubate overnight in a 37°C shaker. Next day, transfer the culture to fresh LB liquid medium at a 1:100 inoculation ratio and incubate at 37 °C until the OD600 reaches approximately 0.47 to 0.53. Collect 300 μL of the E. coli W3110 cells and centrifuge for 2 min at 13,000 rpm, discarding the supernatant afterward. Resuspend the untreated group in 300 μL of PBS, and the peptide treatment group in 297 μL of ddH2O. Add 3 μL of 0.5 mM different peptides to the treatment group, mix well, and allow to react for 15 min. After the treatment, resuspend all samples in 15 μL of 6×SDS loading buffer and 15 μL of 10% SDS. All samples were heated at 99.9°C for 15 min, followed by 10% SDS-PAGE analysis and staining with Coomassie brilliant blue R250. […]
as §1

With “Ac-(4-F-DPhe)IWHKSLT(4-F-DPhe)NYLHTCGS(Acp)RRRRRRRRR-NH2 (sidechain bridge or staple) [BAM-f2-R9, BAM-f2 conjugated with cell-penetrating peptide R9]” as the substance, how does the “PI red fluorescence (cell membrane permeability)” value (E. coli W3110 [1]) read?
Its value is “notable red fluorescence intensity”.

And the cellular protein leakage (E. coli W3110 [2])?
The cellular protein leakage was “partial cellular protein leakage”.

Which results are given for “Ac-(4-F-DPhe)KHFIY(4-F-β-Phe)YRSPICGS(Acp)RRRRRRRRR-NH2 (sidechain bridge or staple) [BAM-β3-R9, BAM-β3 conjugated with cell-penetrating peptide R9]”?
PI red fluorescence (cell membrane permeability) (E. coli W3110 [1]): notable red fluorescence intensity; cellular protein leakage (E. coli W3110 [2]): partial cellular protein leakage
